The results in this text go back to patent US6380249B1 (dated 2002).

Broadly, the melting point is the temperature, or range, at which the solid turns liquid.

`O=C(O)C(=O)CC(=O)c1cccc(OCc2ccc(F)c(F)c2)c1` registered a melting point of 181 to 182 °C.
In the case of `COc1cc(OCc2ccccc2)cc(C(=O)CC(=O)C(=O)O)c1`, the melting point is 101 to 102 °C.
The value for `COc1cc(Cc2ccccc2)cc(C(=O)CC(=O)C(=O)O)c1OCCSC` was 99 to 100 °C; that for `O=C(O)C(=O)CC(=O)c1cccc2c1ccn2Cc1ccc(F)cc1` was 156 to 157 °C.
The value for `O=C(O)C(=O)CC(=O)c1ccccc1OCc1ccccc1` was 136 to 138 °C; that for `O=C(O)C(=O)CC(=O)c1cc(Cc2ccccc2)cc2c1OCCO2` was 154 to 155 °C.
In the case of `C=CCCCc1cc(OC)c(OC)c(C(=O)CC(=O)C(=O)O)c1`, the melting point was 75 to 76 °C.
The same measure for `COc1cc(CC2CC2)cc(C(=O)CC(=O)C(=O)O)c1OC`: 101 to 103 °C.
The molecule `COCCOc1c(OC)cc(Cc2ccccc2)cc1C(=O)CC(=O)C(=O)O` gave a melting point of 83 to 85 °C.
In the case of `O=C(O)C(=O)CC(=O)c1ccc2ccn(Cc3ccc(F)cc3)c2c1`, the melting point lay in the range of 173 to 174 °C.
Molecule `O=C(O)C(=O)CC(=O)c1cc(Cc2ccccc2)cc2c1OCC(O)CO2` (racemic) registered a melting point of 182 to 183 °C.
The same measure for `O=C(O)C(=O)CC(=O)c1cccc(OCc2ccc(F)cc2)c1`: 157 to 158 °C.
